“And” between values parts separate entries of the source, which are not always exact repeats. Identical values can stand only once. Like-named read-outs stand apart in the source and are kept apart here.
Tests used:
[1] = tested on: Na+-sensitive transport system (system A) of the Ehrlich cell; assay: Na+-sensitive uptake of amino acids; format: cell-based, mice
[2] = tested on: Na+-insensitive uptake, Ehrlich cell; assay: Uptake of amino acids by Ehrlich cells from Na+-free medium; format: cell-based, mice; conditions: for uptake (Table II): amino acid 1 mM, [Na+] 0; for inhibitory action on the uptake of methionine: choline has replaced Na+ (Table I); for Uptake of methionine in presence of inhibitor (Table I): labeled methionine 1 mM; for Uptake of methionine in presence of inhibitor (Table I) / Uptake of AIB in presence of inhibitor (Table I) / Uptake of labeled amino acid without inhibitor (Table I): no Na+; for Km: read-out: Km for the other amino acid (Table V), choline medium, 37 C, pH 7.4, 1 min, only approximate; for Km / Ratio of uptake Methionine/other amino acid (Table VI): absence of Na+; for Rate of methionine uptake (Table IV): 1 mM, Na+-free Krebs-Ringer phosphate medium; for Uptake of AIB in presence of inhibitor (Table I): labeled AIB 1 mM; for Uptake of labeled amino acid without inhibitor (Table I): labeled amino acid 1 mM, inhibitor 0
Ehrlich cell [3] = conditions: first minute, high amino acid levels; cited from earlier work
Ehrlich cell [4] = format: cell-based, mice; conditions: above 16 mM methionine, modified KRB medium with Na+, 1 min, 37 C, pH 7.4
[5] = [Na+] 107 mEq/liter, 1 min, 37 C, pH 7.4
[6] = methionine 0.25 mM + AIB 1.0 mM, 1 min, 37 C, pH 7.4
[7] = methionine 0.5 mM + AIB 2.0 mM, 1 min, 37 C, pH 7.4
[8] = methionine 1.0 mM + AIB 4.0 mM, 1 min, 37 C, pH 7.4
[9] = read-out: Km of Na+-sensitive uptake, [Na+] 107 mEq/liter, 1 min, 37 C, pH 7.4
[10] = choline chloride substituting for NaCl, Exp. 1
[11] = choline chloride substituting for NaCl, Exp. 2
[12] = sucrose substituting for NaCl, Exp. 1
[13] = sucrose substituting for NaCl, Exp. 2

In the case of `CC(C)(N)C(=O)O` [AIB, a-aminoisobutyric acid, reference compound], the “Vmax of Na+-sensitive uptake” value [1, 5] is reported as 5 mmoles/kg cell water min, the “Vmax, velocities extrapolated to infinite [Na+]” value [1] is reported as 7.1 mM/kg cell water min and the “Sodium-sensitive uptake rate of the test amino acid in mixture (Table III)” value (“Sodium-sensitive uptake rate” for short) [1, 6] is reported as 0.51 mmoles/kg cell water min. The “Sodium-sensitive uptake rate” value [1, 7] was 0.64 mmoles/kg cell water min, the “Sodium-sensitive uptake rate” value [1, 8] was 0.77 mmoles/kg cell water min and the Km [1, 9] was 2000 µM. For the same molecule, the “uptake (Table II)” value [2, 10] was 0.16 mmoles/kg cell water min, the “uptake (Table II)” value [2, 11] was 0.21 mmoles/kg cell water min and the “uptake (Table II)” value [2, 12] was 0.21 mmoles/kg cell water min. The “uptake (Table II)” value [2, 13] was 0.29 mmoles/kg cell water min, the “inhibitory action on the uptake of methionine” value [2] was “no significant inhibitory action” and the “Uptake of methionine in presence of inhibitor (Table I)” value ([2]; inhibitor 4 mM) was 2.63 mmoles/kg cell water-min. For the same molecule, the “Uptake of methionine in presence of inhibitor (Table I)” value ([2]; inhibitor 8 mM) was 2.62 mmoles/kg cell water-min and the “rate of permeation at high levels ("nonsaturable" migration)” value (Ehrlich cell [3]) was 0.1 min-'.

With `CNC(C)(C)C(=O)O` [MeAIB, α-(methylamino)-isobutyric acid, reference compound] the Km [1, 9] was ~300 µM, the “inhibitory action on the uptake of methionine” value [2] was “no significant action” and the “Uptake of methionine in presence of inhibitor (Table I)” value ([2]; inhibitor 16 mM) was 1.77 mmoles/kg cell water-min.

With `C[C@H](N)C(=O)O` [alanine] the “Vmax of Na+-sensitive uptake” value ([1]; difference method of Fig. 5) was 6.4 mmoles per kg cell water min.

In the case of `NCC(=O)O` [glycine], the “Vmax of Na+-sensitive uptake” value ([1]; difference method of Fig. 5) is reported as 7.4 mmoles per kg cell water min.

For `CC(C)C[C@H](N)C(=O)O` [leucine], the Km [2] was 150 µM.

For `CSCC[C@H](N)C(=O)O` [methionine, L-methionine], the “inhibition of the saturable uptake of AIB” value ([1]; Na+ at 107 mEq/liter, Fig. 10) was “so nearly complete”, the “Vmax of Na+-sensitive uptake” value [1, 5] was 4 mmoles/kg cell water min and 3.7 mmoles/kg cell water min and the “Vmax, velocities extrapolated to infinite [Na+]” value [1] was 5.0 mM/kg cell water min. For the same molecule, the “inhibition of the uptake of MeAIB” value ([1]; in the presence of Na+) was “inhibits almost completely”, the “Ratio of uptake rates methionine/AIB (Table III)” value ([1]; methionine 0.25 mM + AIB 1.0 mM) was 1.1 and the “Sodium-sensitive uptake rate” value [1, 6] was 0.58 mmoles/kg cell water min. For the same molecule, the “Ratio of uptake rates methionine/AIB (Table III)” value ([1]; methionine 0.5 mM + AIB 2.0 mM) was 1.5, the “Sodium-sensitive uptake rate” value [1, 7] was 0.99 mmoles/kg cell water min and the “Ratio of uptake rates methionine/AIB (Table III)” value ([1]; methionine 1.0 mM + AIB 4.0 mM) was 1.4. The “Sodium-sensitive uptake rate” value [1, 8] was 1.04 mmoles/kg cell water min, the Km [1, 9] was 300 µM and the Km ([1]; read-out: Km, velocities extrapolated to infinite [Na+], data of Fig. 12 left) was 140 µM. For the same molecule, the “Rate of methionine uptake (Table IV)” value ([2]; pH 5.6, Exp. 1) was 3.03 mmoles/kg cell water min, the “Rate of methionine uptake (Table IV)” value ([2]; pH 5.6, Exp. 2) was 2.99 mmoles/kg cell water min and the “Rate of methionine uptake (Table IV)” value ([2]; pH 6.3, Exp. 1) was 3.03 mmoles/kg cell water min. For the same molecule, the “Rate of methionine uptake (Table IV)” value ([2]; pH 6.3, Exp. 2) was 3.08 mmoles/kg cell water min, the “Rate of methionine uptake (Table IV)” value ([2]; pH 7.0, Exp. 1) was 2.86 mmoles/kg cell water min and the “Rate of methionine uptake (Table IV)” value ([2]; pH 7.0, Exp. 2) was 2.87 mmoles/kg cell water min. For the same molecule, the “inhibitory action on the residual uptake of AIB” value ([2]; Na+ replaced with choline+ (Table I)) was “negligible inhibitory action”, the “distribution ratio (cellular level to extracellular level)” value ([2]; after 1 min, all Na+ eliminated from the medium) was 2.25 and the “uptake (Table II)” value [2, 10] was 1.35 mmoles/kg cell water min. For the same molecule, the “uptake (Table II)” value [2, 11] was 2.48 mmoles/kg cell water min, the “uptake (Table II)” value [2, 12] was 1.44 mmoles/kg cell water min and the “uptake (Table II)” value [2, 13] was 2.79 mmoles/kg cell water min. The “Uptake of AIB in presence of inhibitor (Table I)” value ([2]; inhibitor 0.5 mM) was 0.17 mmoles/kg cell water-min, the “Uptake of AIB in presence of inhibitor (Table I)” value ([2]; inhibitor 1 mM) was 0.14 mmoles/kg cell water-min and the “Uptake of labeled amino acid without inhibitor (Table I)” value ([2]; experiment with AIB as inhibitor) was 2.68 mmoles/kg cell water-min. For the same molecule, the “Uptake of labeled amino acid without inhibitor (Table I)” value ([2]; experiment with MeAIB as inhibitor) was 1.77 mmoles/kg cell water-min, the “Ratio of uptake Methionine/other amino acid (Table VI)” value ([2]; methionine and leucine, each 0.2 mM) was 0.99 and the “Ratio of uptake Methionine/other amino acid (Table VI)” value ([2]; methionine and leucine, each 0.4 mM) was 0.94. The “Ratio of uptake Methionine/other amino acid (Table VI)” value ([2]; methionine and leucine, each 0.8 mM) was 0.92, the “Ratio of uptake Methionine/other amino acid (Table VI)” value ([2]; methionine and leucine, each 1.6 mM) was 0.99 and the “Ratio of uptake Methionine/other amino acid (Table VI)” value ([2]; methionine and valine, each 0.25 mM) was 3.2. The “Ratio of uptake Methionine/other amino acid (Table VI)” value ([2]; methionine and valine, each 0.5 mM) was 2.18, the “Ratio of uptake Methionine/other amino acid (Table VI)” value ([2]; methionine and valine, each 1.0 mM) was 1.65 and the “Ratio of uptake Methionine/other amino acid (Table VI)” value ([2]; methionine and valine, each 2.0 mM) was 1.33. The “linear slope of increase of uptake rate with methionine concentration” value (Ehrlich cell [4]) was 0.09 min- l.

`CC(C)[C@H](N)C(=O)O` [valine] gave a Km [2] of 750 µM.

From PMC2225630 (The Journal of General Physiology, 1966)
